Reference: US20240252560A1, “LACTOBACILLUS RHAMNOSUS-DERIVED VESICLE AND USES THEREOF” (MD HEALTHCARE INC., priority 2021, published 2024)

Tested on: AMPK
Experiment: AMPK activation (pAMPK Western blotting) in muscle cells
Format: cell-based
Settings: 1 hour, vesicles 0, 0.1, 1, 10 μg/ml, metformin 10 μg/ml
Protocol: Therefore, an experiment was performed in the following manner to evaluate the effect of Lactobacillus rhamnosus-derived vesicles (MDH-003) on cellular aging through AMPK activation within cells. That is, to evaluate AMPK activity according to the concentration of Lactobacillus rhamnosus-derived vesicles in muscle cells, cells were treated with Lactobacillus rhamnosus-derived vesicles at concentrations of 0, 0.1, 1, and 10 μg/ml for 1 hour. As a control group, metformin, which suppresses aging, was used at a concentration of 10 μg/ml. After treating the cells with the drug, the difference in the amount of pAMPK, which is an important indicator in AMPK signaling, was measured by Western blotting.

## CN(C)C(=N)N=C(N)N [metformin]
  phosphorylation of AMPK (pAMPK): enhanced
